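All cell lines were grown in 96-well plates and treated with compound for 48 hours. The concentration for 50% growth inhibition is given as GI50. TGI: concentration producing complete growth inhibition.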
Key:
Assay in all cases: inhibition of tumour cell growth, NCI panel, 48 h
CAKI-1 renal = system: CAKI-1 renal
LOX IMVI melanoma = system: LOX IMVI melanoma
MCF7 breast = system: MCF7 breast
MDA-MB-231 breast = system: MDA-MB-231 breast
MOLT-4 leukemia = system: MOLT-4 leukemia
OVCAR-3 ovarian = system: OVCAR-3 ovarian
RPMI-8226 leukemia = system: RPMI-8226 leukemia
SF-268 CNS = system: SF-268 CNS
SNB-19 CNS = system: SNB-19 CNS
UACC-62 melanoma = system: UACC-62 melanoma

Structure (SMILES)	TGI (CAKI-1 renal) [µM]	TGI (LOX IMVI melanoma) [µM]	TGI (MCF7 breast) [µM]	TGI (MDA-MB-231 breast) [µM]	TGI (MOLT-4 leukemia) [µM]	TGI (OVCAR-3 ovarian) [µM]	TGI (RPMI-8226 leukemia) [µM]	TGI (SF-268 CNS) [µM]	TGI (SNB-19 CNS) [µM]	TGI (UACC-62 melanoma) [µM]	GI50 (CAKI-1 renal) [µM]	GI50 (LOX IMVI melanoma) [µM]	GI50 (MCF7 breast) [µM]	GI50 (MDA-MB-231 breast) [µM]	GI50 (MOLT-4 leukemia) [µM]	GI50 (OVCAR-3 ovarian) [µM]	GI50 (RPMI-8226 leukemia) [µM]	GI50 (SF-268 CNS) [µM]	GI50 (SNB-19 CNS) [µM]	GI50 (UACC-62 melanoma) [µM]
CCc1[nH]nc(C(N)=O)c1N=NN(C)C	> 100	> 100	> 100	> 100	41.6	> 100	> 100	> 100	> 100	> 100										
COc1ccccc1NC(=O)CC(=O)n1nc(C)c(N=Nc2ccccc2Cl)c1C	> 100	> 100	> 100	> 100	> 100	> 100	> 100	> 100	> 100	> 100										
CN(/N=C/c1ccccc1O)c1ccc2ccccc2n1	> 100	> 100	30.9	> 100	62.6	34.7	> 100	53.8	30.3	> 100										
Cc1ccc2[nH]c(O)c(N=Nc3ccccc3[N+](=O)[O-])c2c1	> 100	> 100	> 100	6.03	> 100	99.6	> 100	> 29.4	> 81.1	> 100										
O=C(O)CN1C(=O)CN=C(c2ccccn2)c2cc(Cl)ccc21	> 100	> 100	> 100	> 100	21.7	> 100	> 100	> 100	> 100	> 100										
C#Cc1cccc(NC(=O)c2cccc(NC(=O)CCl)c2)c1	> 82.5	21.7	> 82.5	37.2	61.2	29.4	59.3	> 82.5	> 82.5	> 82.5	31.5	8.87	12.8	16	6.71	14.2	17.3	23	31.1	26.9
Cc1c[nH]c(=O)n(Cc2nnc(CCC(=O)c3nc4ccccc4[nH]3)o2)c1=O	> 100	> 100	> 100	> 53	> 100	1.26	> 100	> 100	> 100	> 88.1	7.22	0.439	0.205	0.671	1.69	0.315	0.34	1.5	1.27	0.721
O=C(Nc1cccc(C(F)(F)F)c1)c1ccc(NC2=C(Cl)C(=O)N(Cc3ccccc3)C2=O)cc1	3.24	6.6	4.54	23.9	10.3	4.63	4.88	29.9	40.5	25.5	1.65	2.45	2.02	6.53	1.27	2.09	2.17	6.41	20.4	12.9
O=C(c1ccccc1)C1OC1C(=O)c1ccccc1 (configuration not stated)	23.4	11.7	14.7	> 100		6.7	11.6	19.1	> 100	15.9	2.82	2.75	2.34	3.31		1.77	3.34	2.93	14.1	2.91
COc1ccc(-c2cc(-c3ccc(OC)cc3)nc(NCCCNc3ccnc4cc(Cl)ccc34)n2)cc1	25.8	3.25	3.5	3.59	6.09	3.14		3.3	3.99	7.26	11.8	1.79	1.65	1.95	1.84	1.7		1.65	1.96	2.76
CCn1c(SCC(=O)Nc2cc(C(F)(F)F)ccc2Cl)nc2ccccc2c1=O	> 100	> 100	> 100	> 100	> 100	> 100	> 100	> 100	> 100	> 100	24	> 100	94.4	18.9	> 100	43.2	> 100	41.2	32.8	38.4
FC(F)(F)c1nc(SCc2ccc(Cl)cc2)n[nH]1	> 100	> 100	> 100	> 100	> 100	> 100	> 100	> 100	> 100	> 100										
COc1ccc(CNCCCN2C(=O)c3ccc4c5c(ccc(c35)C2=O)C(=O)N(CCCNCc2ccc(OC)c(OC)c2OC)C4=O)c(OC)c1OC	1.95	0.155	0.219	0.398	0.291	0.23	0.56	0.353	0.18	0.182	0.671	0.0795	0.0811	0.125	0.121	0.0888	0.145	0.117	0.0877	0.093
CCCS(=O)(=O)Nc1cccc(Nc2ncnc3cc(NC(=O)CCl)ccc23)c1Cl	5.95	3.9	5.92	6.08	7.13	6.62	8.56	4.62	4.58	3.68	2.32	0.892	1.05	2.34	1.04	2.98	3.23	1.03	1.35	0.871
CCN(CC)CCn1c(=O)c2cc(OC)c(OC)cc2c2ccc3cc4c(cc3c21)OCO4	15.1	0.584	24.8	3.66	3.72	25.5	4.56	37.8	27.2	14.8	0.222	0.139	0.0607	1.29	0.0715	7.57	0.436	0.228	0.367	0.163
COc1c(C)c(OC)c(C(=O)CC(C)C)c(OC)c1C	> 100	> 100	> 100	> 100	> 100	> 100	73.1	> 100	> 100	> 100										
COc1ccc(C2CC(c3ccc(OC)cc3O)=NN2c2ccc(S(N)(=O)=O)cc2)cc1 (configuration not stated)	91.9	> 100	> 100	> 100	36.6	> 100	> 100	> 100	> 100	> 100	6.74	14.1	4.11	15.3	2.88	12.2	4.67	34.1	27.3	8.76
O=c1cc(-c2ccccc2)oc2c1ccc1ccccc12	> 100	> 100	> 100	67.9	51.5	> 100	70.2	> 100	> 100	> 100	18	21.9	13.9	12.5	23.5	30.9	21.7	37.3	6.1	12.3
CCCCC(OC(=O)c1ccc(N)cc1)C(=O)Nc1nc(CC(=O)OCC)cs1 (configuration not stated)	> 100	> 100	> 100	> 100	> 100	82	> 100	> 100	> 100	> 100	39.1	39	34.8	28.1	35.8	23.5	26.7	43.5	49.9	51.6
CC1(C)N=c2cc3c(cc2N1c1ccc(Cl)cc1)=Nc1ccccc1N3c1ccc(Cl)cc1	> 100	24.8	23.4	> 100	4.04	31.7	11.8	> 100	> 100	> 100	18.2	5.44	2.41	59.7	1.53	4.07	2.05	7.56	58.2	7.18
NNc1nc2ccccc2o1	> 100	> 100	> 100	> 100	> 100		> 100	> 100	> 100	> 100										
O=C1/C(=C/c2ccc(F)cc2)CN(C(=O)C(Cl)Cl)C/C1=C\c1ccc(F)cc1	1.08	0.0974	1.09	1.09	> 100	0.778	0.324	1.47	1.25	0.641	0.309	0.0346	0.112	0.323	0.309	0.262	0.0341	0.328	0.287	0.237
CC(=O)Nc1ccc(OC(C)=O)cc1	28.8	4.14	> 74.4	2.04	3.79	< 0.0134	9.64	46.2	> 100	12.7	0.084	< 0.01	< 0.01	< 0.01	< 0.01	< 0.01	< 0.01	< 0.0103	< 0.0126	< 0.01
COc1ccc2nc3c(cc2c1)C(=O)CC(c1ccccc1)C3 (configuration not stated)	> 100	> 100	> 100	> 100	> 100	10.4	> 100	> 100	> 100	> 100	0.552	1.33	3.54	3	0.364	1.4	3.65	> 100	2.94	0.601
CCOC(=O)c1c2c(n3ccc(NC(=O)CCN4CCCCC4)cc13)C(=O)c1ncccc1C2=O	4.18	0.777	1.95	3.77	4.04	2.64	4.49	2.25	3.21	2.65	0.0279	0.301	< 0.01	1.79	1.42	1.14	1.41	0.0503	1.06	0.281
CC1(C)CCc2c(c(N=Nc3ccccc3F)c3ccccc3c2O)O1	> 100	40.9	> 100	37.9	> 100	51.2	> 100	> 100	> 100	> 100	31.6	20.9	> 100	17.6	> 100	20.5	> 100	76.3	36.8	> 100
CC[C@H]1CCC/C=C/[C@@H]2C[C@H](O)C[C@H]2[C@H](O)/C=C/C(=O)O1	> 100	0.0793	0.102	0.0416	> 100	0.104	12.5	> 100	> 100	> 37.7	0.0444	0.0251	0.0266	0.0213	0.0354	0.0281	0.0387	0.0403	0.0607	0.0384
O=C(CCCC(=O)N/N=C/c1cc(Cl)ccc1O)N/N=C\c1cc(Cl)ccc1O	> 100	25.4	> 100	91.6	23.2	> 100	> 100	> 100	> 100		1.98	1.69	2.54	2.63	2.52	0.847	4.67	2.5	4.42	
O=C1OC(c2ccc(Cl)cc2)=N/C1=C\c1ccccc1	> 100	> 100	> 100	> 100		> 100	> 100	> 100	> 100	> 100										

— PubChem BioAssay (NCI)
